Results from patent US20240228506A1, “RIPK1 INHIBITORS AND METHODS OF USE” (Merck Sharp & Dohme LLC, priority 2021, published 2024).

The compounds below were run against T1, GST-RIPK1 (recombinant GST-RIPK1 kinase domain (residues 1-327)) (Homo sapiens, UniProt Q13546) (assay: RIPK1-ADP-Glo enzymatic assay). Conditions: 25 nM GST-RIPK1, 300 μM ATP, 3 μM dephosphorylated-MBP; 30 minutes pre-incubation, 150 minutes reaction; ten-point titration.
T1 construct: recombinant GST-RIPK1 kinase domain (residues 1-327) enzyme; made in house; host or cells: baculovirus-transfected Sf21 insect cells
T1 sequence (Q13546 1-327): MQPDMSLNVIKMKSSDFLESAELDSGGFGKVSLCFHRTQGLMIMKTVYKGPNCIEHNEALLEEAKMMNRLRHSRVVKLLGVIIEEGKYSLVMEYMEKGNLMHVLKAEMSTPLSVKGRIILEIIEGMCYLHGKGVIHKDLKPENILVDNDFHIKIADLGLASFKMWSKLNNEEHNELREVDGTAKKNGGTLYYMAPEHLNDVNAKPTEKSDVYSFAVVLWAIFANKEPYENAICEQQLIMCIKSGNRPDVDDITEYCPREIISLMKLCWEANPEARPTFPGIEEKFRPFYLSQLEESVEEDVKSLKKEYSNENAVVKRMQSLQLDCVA
Assay type: biochemical
In short: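 Ten-point 1:3 titrations from 100000 nM, 1% DMSO, were preincubated 30 min with 25 nM GST-RIPK1 (1-327) before starting with 300 μM ATP plus 3 μM dephosphorylated MBP; 150 min reaction. ADP-Glo luminescence measured ATP-to-ADP conversion; EC50 by four-parameter sigmoidal regression.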
In the case of `CC(C)(C(=O)N1C[C@@H]2C[C@H]1c1cncc(C#CCCc3ccccc3)c1O2)C(F)F` [Compound 2-110, 3,3-difluoro-2,2-dimethyl-1-((2S,5S)-9-(4-phenylbut-1-yn-1-yl)-2,3-dihydro-2,5-methanopyrido[3,4-f][1,4]oxazepin-4(5H)-yl)propan-1-one], the IC50 is reported as 197 nM.
`CC(C)(C(=O)N1C[C@@H]2C[C@H]1c1cncc(C#CCCC(F)(F)F)c1O2)C(F)F` [Compound 2-111, 3,3-difluoro-2,2-dimethyl-1-((2S,5S)-9-(5,5,5-trifluoropent-1-yn-1-yl)-2,3-dihydro-2,5-methanopyrido[3,4-f][1,4]oxazepin-4(5H)-yl)propan-1-one] gave an IC50 of 266 nM.
Compound `CC[C@H](C)CC#Cc1cncc2c1O[C@H]1C[C@@H]2N(C(=O)C(C)(C)C(F)F)C1` [Compound 2-112, 3,3-difluoro-2,2-dimethyl-1-((2S,5S)-9-((S)-4-methylhex-1-yn-1-yl)-2,3-dihydro-2,5-methanopyrido[3,4-f][1,4]oxazepin-4(5H)-yl)propan-1-one] has an IC50 of 83 nM.
Work on `CC(C)(C(=O)N1C[C@@H]2C[C@H]1c1cncc(C#CCF)c1O2)C(F)F` [Compound 2-113, 3,3-difluoro-1-((2S,5S)-9-(3-fluoroprop-1-yn-1-yl)-2,3-dihydro-2,5-methanopyrido[3,4-f][1,4]oxazepin-4(5H)-yl)-2,2-dimethylpropan-1-one] yielded an IC50 of 116 nM.
In the case of `CC(C)(C(=O)N1C[C@@H]2C[C@H]1c1cncc(C#CC34CC(C(F)(F)F)(C3)C4)c1O2)C(F)F` [Compound 2-114, 3,3-difluoro-2,2-dimethyl-1-((2S,5S)-9-((3-(trifluoromethyl)bicyclo [1.1.1]pentan-1-yl)ethynyl)-2,3-dihydro-2,5-methanopyrido[3,4-f][1,4]oxazepin-4(5H)-yl)propan-1-one], the IC50 is reported as 1530 nM.
Work on `O=C(N1C[C@@H]2C[C@H]1c1cncc(C#CC3CC3)c1O2)C12CCC(F)(CC1)C2` [Compound 2-115, ((2S,5S)-9-(Cyclopropylethynyl)-2,3-dihydro-2,5-methanopyrido[3,4-f][1,4]oxazepin-4(5H)-yl)(4-fluorobicyclo[2.2.1]heptan-1-yl)methanone] yielded an IC50 of 32 nM.
`CC1(CC#Cc2cncc3c2O[C@H]2C[C@@H]3N(C(=O)C34CCC(F)(CC3)C4)C2)COC1` [Compound 2-116, (4-fluorobicyclo[2.2.1]heptan-1-yl)((2S,5S)-9-(3-(3-methyloxetan-3-yl)prop-1-yn-1-yl)-2,3-dihydro-2,5-methanopyrido[3,4-f][1,4]oxazepin-4(5H)-yl)methanone] showed an IC50 of 376 nM.
With `CCC#Cc1cncc2c1O[C@H]1C[C@@H]2N(C(=O)C23CCC(F)(CC2)C3)C1` [Compound 2-117] the IC50 was 43 nM.
With `O=C(N1C[C@@H]2C[C@H]1c1cncc(C#CCC3CCOC3)c1O2)C12CCC(F)(CC1)C2` (stereo partly drawn) [Compound 2-118, (4-fluorobicyclo[2.2.1]heptan-1-yl)((2S,5S)-9-(3-(tetrahydrofuran-3-yl)prop-1-yn-1-yl)-2,3-dihydro-2,5-methanopyrido[3,4-f][1,4]oxazepin-4(5H)-yl)methanone] the IC50 was 64 nM.
`O=C(N1C[C@@H]2C[C@H]1c1cncc(C#CC3COC3)c1O2)C12CCC(F)(CC1)C2` [Compound 2-119, (4-fluorobicyclo[2.2.1]heptan-1-yl)((2S,5S)-9-(oxetan-3-ylethynyl)-2,3-dihydro-2,5-methanopyrido[3,4-f][1,4]oxazepin-4(5H)-yl)methanone] showed an IC50 of 57 nM.
`O=C(N1C[C@@H]2C[C@H]1c1cncc(C#CCC3(F)COC3)c1O2)C12CCC(F)(CC1)C2` [Compound 2-120, (4-fluorobicyclo[2.2.1]heptan-1-yl)((2S,5S)-9-(3-(3-fluorooxetan-3-yl)prop-1-yn-1-yl)-2,3-dihydro-2,5-methanopyrido[3,4-f][1,4]oxazepin-4(5H)-yl)methanone] showed an IC50 of 95 nM.
`CC1(C(=O)N2C[C@@H]3C[C@H]2c2cncc(C#Cc4ccc(F)cc4)c2O3)CCCC1` [Compound 2-121, ((2S,5S)-9-((4-Fluorophenyl)ethynyl)-2,3-dihydro-2,5-methanopyrido[3,4-f][1,4]oxazepin-4(5H)-yl)(1-methylcyclopentyl)methanone] was tested, and the IC50 was 34 nM.
With `O=C(N1C[C@@H]2C[C@H]1c1cncc(C#Cc3ccc(F)cc3)c1O2)C12CCC(F)(CC1)C2` [Compound 2-122, (4-fluorobicyclo[2.2.1]heptan-1-yl)((2S,5S)-9-((4-fluorophenyl)ethynyl)-2,3-dihydro-2,5-methanopyrido[3,4-f][1,4]oxazepin-4(5H)-yl)methanone] the IC50 was 24 nM.
With `CC(F)(F)C(C)(C)C(=O)N1C[C@@H]2C[C@H]1c1cncc(C#Cc3ccc(F)cc3)c1O2` [Compound 2-123, 3,3-difluoro-1-((25,5S)-9-((4-fluorophenyl)ethynyl)-2,3-dihydro-2,5-methanopyrido[3,4-f][1,4]oxazepin-4(5H)-yl)-2,2-dimethylbutan-1-one] the IC50 was 34 nM.
`CC(C)(C(=O)N1C[C@@H]2C[C@H]1c1cc(F)cnc1O2)C(F)F` [Compound 3-1, 3,3-Difluoro-1-((2S,5S)-7-fluoro-2,3-dihydro-2,5-methanopyrido[3,2-f][1,4]oxazepin-4(5H)-yl)-2,2-dimethylpropan-1-one] was tested, and the IC50 was 317 nM.
`CC(F)(F)C(C)(C)C(=O)N1C[C@@H]2C[C@H]1c1cncnc1O2` [Compound 3-2, 1-((5S,8S)-7,8-dihydro-5,8-methanopyrimido[5,4-f][1,4]oxazepin-6(5H)-yl)-3,3-difluoro-2,2-dimethylbutan-1-one] was tested, and the IC50 was 1210 nM.
`O=C(N1C[C@@H]2C[C@H]1c1cncnc1O2)C12CCC(F)(CC1)C2` [Compound 3-3, ((5S,8S)-7,8-Dihydro-5,8-methanopyrimido[5,4-f][1,4]oxazepin-6(5H)-yl)(4-fluorobicyclo[2.2.1]heptan-1-yl)methanone] was tested, and the IC50 was 377 nM.
For `Cc1ncc2c(n1)O[C@H]1C[C@@H]2N(C(=O)C23CCC(F)(CC2)C3)C1` [Compound 3-4, (4-fluorobicyclo[2.2.1]heptan-1-yl)((5S,8S)-2-methyl-7,8-dihydro-5,8-methanopyrimido[5,4-f][1,4]oxazepin-6(5H)-yl)methanone], the IC50 was 1230 nM.
`CC(C)(C(=O)N1C[C@@H]2C[C@H]1c1cncc(C#N)c1S2)C(F)F` [Compound 4-1, (2S,5S)-4-(3,3-difluoro-2,2-dimethylpropanoyl)-2,3,4,5-tetrahydro-2,5-methanopyrido[3,4-f][1,4]thiazepine-9-carbonitrile] showed an IC50 of 24 nM.
`N#Cc1cncc2c1S[C@H]1C[C@@H]2N(C(=O)C23CCC(C(F)(F)F)(CC2)C3)C1` [Compound 4-2, (2S,5S)-4-(4-(trifluoromethyl)bicyclo[2.2.1]heptane-1-carbonyl)-2,3,4,5-tetrahydro-2,5-methanopyrido[3,4-f][1,4]thiazepine-9-carbonitrile] was tested, and the IC50 was 15 nM.
`N#Cc1cncc2c1S[C@H]1C[C@@H]2N(C(=O)C23CCC(F)(CC2)C3)C1` [Compound 4-3, (2S,5S)-4-(4-fluorobicyclo[2.2.1]heptane-1-carbonyl)-2,3,4,5-tetrahydro-2,5-methanopyrido[3,4-f][1,4]thiazepine-9-carbonitrile] gave an IC50 of 12 nM.
With `CC(C)(CC#N)C(=O)N1C[C@@H]2C[C@H]1c1cncc(C#N)c1S2` [Compound 4-4, (2S,5S)-4-(3-cyano-2,2-dimethylpropanoyl)-2,3,4,5-tetrahydro-2,5-methanopyrido[3,4-f][1,4]thiazepine-9-carbonitrile] the IC50 was 42 nM.
With `CC(C)(C#N)C(=O)N1C[C@@H]2C[C@H]1c1cncc(C#N)c1S2` [Compound 4-5, (2S,5S)-4-(2-cyano-2-methylpropanoyl)-2,3,4,5-tetrahydro-2,5-methanopyrido[3,4-f][1,4]thiazepine-9-carbonitrile] the IC50 was 99 nM.
`N#Cc1cncc2c1S[C@H]1C[C@@H]2N(C(=O)C2(C#N)CCC2)C1` [Compound 4-6, (2S,5S)-4-(1-cyanocyclobutane-1-carbonyl)-2,3,4,5-tetrahydro-2,5-methanopyrido[3,4-f][1,4]thiazepine-9-carbonitrile] was tested, and the IC50 was 49 nM.
With `N#Cc1cncc2c1S[C@H]1C[C@@H]2N(C(=O)C2(C#N)CCCC2)C1` [Compound 4-7, (2S,5S)-4-(1-cyanocyclopentane-1-carbonyl)-2,3,4,5-tetrahydro-2,5-methanopyrido[3,4-f][1,4]thiazepine-9-carbonitrile] the IC50 was 27 nM.
Work on `C[C@]1(C(=O)N2C[C@@H]3C[C@H]2c2cncc(C#N)c2S3)C[C@H](C#N)C1` [Compound 4-8, (2S,5S)-4-((1r,3S)-3-cyano-1-methylcyclobutane-1-carbonyl)-2,3,4,5-tetrahydro-2,5-methanopyrido[3,4-f][1,4]thiazepine-9-carbonitrile] yielded an IC50 of 117 nM.
`N#Cc1cncc2c1OC[C@H]1CC[C@@H]2N1C(=O)C12CCC(F)(CC1)C2` [Compound 5-1, (3R,6S)-11-(4-Fluorobicyclo[2.2.1]heptane-1-carbonyl)-3,4,5,6-tetrahydro-2H-3,6-epiminooxocino[3,2-c]pyridine-10-carbonitrile] showed an IC50 of 95 nM.
In the case of `N#Cc1cncc2c1OC[C@H]1CC[C@@H]2N1C(=O)C12CCC(C(F)(F)F)(CC1)C2` [Compound 5-2, (3R,6S)-11-(4-(trifluoromethyl)bicyclo[2.2.1]heptane-1-carbonyl)-3,4,5,6-tetrahydro-2H-3,6-epiminooxocino[3,2-c]pyridine-10-carbonitrile], the IC50 is reported as 114 nM.
